This data set can be described thus: Solution-based crystallization study, in situ UV/Vis probe. The following applies: absence of polymer (control); pH 6.8 buffer, start about 80 μg/mL, FIG. 13-A. In kind it is physicochemical. As to the method:
Several polymers (Kollidon VA64, HPMC E5, HPMC K3, PVP K30, and Vitamin E TPGS) were evaluated for their effectiveness in inhibiting or delaying precipitation of the free acid of Compound A through a solution-based mechanism. About 0.05 mL of a highly concentrated solution of Compound A monosodium salt monohydrate dissolved in dimethyl sulfoxide (16 mg/mL on a free acid equivalent weight basis) was added to 10 mL of pH 6.8 sodium phosphate buffer (50 mM phosphate with ionic strength adjusted to 0.155 M with sodium chloride) containing one of the polymers at one of […] different concentrations (0% (control), 0.001%, 0.01%, and 0.1% (weight polymer/volume buffer %)) to provide a supersaturated Compound A solution (about 80 μg/mL on a free acid equivalent weight basis). The supersaturated solution was continuously stirred at 300 rpm at ambient temperatures (about 26° C.) and the solution concentration was monitored for 30 minutes by an in situ UV/Vis dip probe (μDISS Profiler™, pION Inc, Woburn, Mass. 01801, USA) using an external standard.

For the compound `COc1c(-c2ccc3cc(NS(C)(=O)=O)ccc3c2)cc(-n2ccc(=O)[nH]c2=O)cc1C(C)(C)C` [Compound A, N-(6-(3-tert-butyl-5-(2,4-dioxo-3,4-dihydropyrimidin-1(2H)-yl)-2-methoxyphenyl)naphthalen-2-yl)methanesulfonamide], the “concentration of Compound A in the solution after decrease” value is given as “about 20 μg/mL”.
